Values of other authors in patent US20200276216A1, “INHIBITION OF GLYCOLYSIS WITH 2-DEOXY-D-GLUCOSE AND D-LACTIC ACID DIMER” (priority 2020, published 2020).

Columns and labels:
[1] = in vivo, po
[2] = in vivo
cancer cells = details: dose dependent, exclusive of its ability to lower pH

| half-life [1] | SMILES | estimated maximum approximate dose before side effects become clinically significant [2] | selectivity of action in vitro (cancer cells) |
| --- | --- | --- | --- |
| 4.5 to 8.2 h | O=CC[C@@H](O)[C@H](O)[C@H](O)CO [2DG, 2-Dexoxy-D-Glucose] | ~60 mg/kg/day | – |
| – | C[C@@H](O)C(=O)O[C@H](C)C(=O)O [DLAD, D-Lactic Acid Dimer] | – | selective for cancer cells |
